Consider 10 molecules from patent publication US10961258B2, “Heterocyclic amides as kinase inhibitors” (GLAXOSMITHKLINE INTELLECTUAL PROPERTY DEVELOPMENT LIMITED, priority 2015, dated 2021).

One assay addresses T1, GST-RipK1(1-375) (Homo sapiens, UniProt Q13546).
T1 construct: GST-RipK1 Preparation: His.GST.TEV.RIPK1 1-375; His (N); TEV cleavage site (N); made in house; host or cells: Spodoptera frugiperda (Sf9) insect cells, baculovirus
T1 sequence (Q13546 1-375): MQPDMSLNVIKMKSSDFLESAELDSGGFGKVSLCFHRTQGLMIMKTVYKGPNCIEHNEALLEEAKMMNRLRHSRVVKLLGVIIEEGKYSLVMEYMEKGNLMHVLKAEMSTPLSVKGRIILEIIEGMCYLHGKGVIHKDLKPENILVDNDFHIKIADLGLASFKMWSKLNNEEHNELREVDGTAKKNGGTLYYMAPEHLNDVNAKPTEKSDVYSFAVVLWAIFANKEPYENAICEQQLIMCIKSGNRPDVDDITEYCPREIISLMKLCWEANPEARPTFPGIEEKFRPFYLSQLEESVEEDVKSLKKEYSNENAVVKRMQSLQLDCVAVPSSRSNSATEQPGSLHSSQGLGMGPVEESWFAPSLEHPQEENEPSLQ
Kind of assay: Fluorescent polarization based binding assay at the ATP binding pocket of RIP1. The note with it: FP competition with fluorescently labeled ATP competitive ligand 5 nM; GST-RipK1(1-375) 10 nM; mean of minimum 2 experiments. Here is the method: A fluorescent polarization based binding assay was developed to quantitate
interaction of novel test compounds at the ATP binding pocket of RIP 1, by competition with a fluorescently labeled ATP competitive ligand. GST-RipK1(1-375) was purified from a Baculovirus expression system and was used at a final assay concentration of 10 nM. A fluorescent labeled ligand (14-(2-{[3-({2-{[4-(cyanomethyl)phenyl]amino}-6-[(5-20 cyclopropyl-1H-pyrazol-3-yl)amino]-4-pyrimidinyl}amino)propyl]amino}-2-oxoethyl)16,16,18,18-tetramethyl-6,7,7a,8a,9,10,16,18-octahydrobenzo[2″,3″ ]indolizino[8″,7″:5′,6′]pyrano[3′,2′:3,4]pyrido[1,2-a]indol-5-ium-2-sulfonate (prepared as described in WO2014125444, the disclosure of which is incorporated by reference herein) was used at a final assay concentration of 5 nM. Both the enzyme and ligand were prepared in solutions in 50 mM HEPES pH7.5, 10 mM 25 NaCl, 50 mM MgCl2, 0.5 mM DTT, and 0.02% CHAPS. Test compounds were prepared in neat DMSO and 100 nL was dispensed to individual wells of a multiwell plate. Next, 5 ul GST-RipK1(1-375) was added to the test compounds at twice the final assay concentration, and incubated at room temperature for 10 minutes. Following the incubation, 5 ul of the fluorescent labeled ligand solution, was added to each reaction, at twice the final assay concentration, and incubated at room temperature for at least 15 minutes. Finally, samples were read on an instrument capable of measuring fluorescent polarization. Test compound inhibition was expressed as percent (%) inhibition of internal assay controls. For concentration response experiments, normalized data were fit and pIC50s determined using conventional techniques. The pIC50s are averaged to determine a mean value, for a minimum of 2 experiments.
The RIPK 1 gene [receptor (TNFRSF)-interacting serine-threonine kinase 1] was cloned from human adrenal gland cDNA. Primers were designed from the reference sequence NM_003804.3 with an added CACC Kozak directional tag for cloning into pENTR/TEV/D-TOPO. Gateway® LR cloning was used to site-specifically recombine RIPK1 downstream to an N-terminal HisGST contained within the destination vector pDEST8-His.GST according to the protocol described by Invitrogen.

For assay [1], the system named is human monocytic leukemia U937 cells. The assay is described as follows: U937 necroptosis assay (TNFα + QVD, Cell Titer-Glo viability). In kind it is cell-based. To be noted: U-937, QVD 50 uM, TNFα 100 ng/ml overnight, cellular ATP by Cell Titer-Glo. Here is the method:
The efficacy of RIP1 inhibitors can be tested […] in vitro using a human monocytic leukemia U937 cells in a necroptosis assay (He, S. et al. 2009. Cell 137(6): 1100-1111). Cells were maintained in RPMI supplemented with 10% fetal bovine serum 100 U/ml penicillin, 100 ug/ml streptomycin. For the assay, cells were suspended at 5e5 cells/ml in phenol red free RPMI supplemented with 1% fetal bovine serum, 100 U/ml penicillin, 100 ug/ml streptomycin. Thirty-five (35) ul of the cell suspension was aliquotted into a white, half area assay plate. Five (5) ul each of QVD (final concentration 50 uM) or compound was added to the cells and incubated at 37° C. for 30 min to 1 h. Following the incubation, 5 ul TNFα (final concentration 100 ng/ml) was added to the cells and the samples were incubated overnight. The next day, cellular levels of ATP was determined using the Cell Titer-Glo Luminescent Cell Viability kit (available from Promega Corporation, Madison, Wis., USA). Viability was measured by quantitating cellular levels of ATP using the Cell Titer-Glo kit. All data are shown as means±standard deviation of the mean.
Background: ATP-based viability assays read luminescence as a measure of living cells.

Take `Cc1sc(C)c2c1CCC(NC(=O)c1nnc(Cc3ccccc3)[nH]1)C(=O)N2` (stereo not shown) [Example 1, 5-Benzyl-N-(6,8-dimethyl-2-oxo-2,3,4,5-tetra hydro-1H-thieno[3,4-b]azepin-3-yl)-4H-1,2,4-triazole-3-carboxamide]: the figures for the IC50 (on GST-RipK1(1-375); in assay [1]) were 100 nM and 398 nM, respectively.

With `O=C(NC1CCc2sccc2NC1=O)c1nnc(Cc2ccccc2)[nH]1` (stereo not shown) [Example 2, 5-Benzyl-N-(5-oxo-5,6,7,8-tetrahydro-4H-thieno[3,2-b]azepin-6-yl)-4H-1,2,4-triazole-3-carboxamide], the IC50 on GST-RipK1(1-375) was 251 nM; in assay [1], 794 nM.

With `Cc1cc2c(s1)CCC(NC(=O)c1nnc(Cc3ccccc3)[nH]1)C(=O)N2` (stereo not shown) [Example 3, 5-Benzyl-N-(2-methyl-5-oxo-5,6,7,8-tetrahydro-4H-thieno[3,2-b]azepin-6-yl)-4H-1,2,4-triazole-3-carboxamide], the results for the IC50 (at GST-RipK1(1-375); in assay [1]) were 79.4 nM and 631 nM, respectively.

Take `Cn1ccc2c1CCC(NC(=O)c1nnc(Cc3ccccc3)[nH]1)C(=O)N2` (stereo not shown) [Example 4, 5-Benzyl-N-(1-methyl-5-oxo-1,4,5,6,7,8-hexahydropyrrolo[3,2-b]azepin-6-yl)-4H-1,2,4-triazole-3-carboxamide]: the IC50 on GST-RipK1(1-375) was 794 nM; in assay [1], 1260 nM.

With `Cc1cn(C)c2c1NC(=O)C(NC(=O)c1nnc(Cc3ccccc3)[nH]1)CC2` (stereo not shown) [Example 5, 5-Benzyl-N-(1,3-dimethyl-5-oxo-1,4,5,6,7,8-hexahydropyrrolo[3,2-b]azepin-6-yl)-4H-1,2,4-triazole-3-carboxamide], the IC50 on GST-RipK1(1-375) was 631 nM; in assay [1] it was greater than 10000 nM.

Take `O=C(NC1CCc2[nH]c3ccccc3c2NC1=O)c1nnc(Cc2ccccc2)[nH]1` (stereo not shown) [Example 6, 5-Benzyl-N-(2-oxo-1,2,3,4,5,6-hexahydroazepino[3,2-b]indol-3-yl)-4H-1,2,4-triazole-3-carboxamide]: the IC50 at GST-RipK1(1-375) was 39.8 nM; in assay [1], 251 nM.

Turning to `Cc1nsc2c1N(C)C(=O)[C@@H](NC(=O)c1nnc(Cc3ccccc3)[nH]1)CN2` [Example 7, (S)-5-Benzyl-N-(3,4-dimethyl-5-oxo-5,6,7,8-tetrahydro-4H-isothiazolo[4,5-b][1,4]diazepin-6-yl)-4H-1,2,4-triazole-3-carboxamide], the IC50 was 20 nM on GST-RipK1(1-375) and 15.8 nM in assay [1].

Take `O=C(N[C@H]1CSc2cccn2NC1=O)c1nnc(Cc2ccccc2)[nH]1` [Example 8, (R)-5-Benzyl-N-(4-oxo-2,3,4,5-tetrahydropyrrolo[2,1-b][1,3,4]thiadiazepin-3-yl)-4H-1,2,4-triazole-3-carboxamide]: the IC50 at GST-RipK1(1-375) is 25.1 nM; in assay [1], 79.4 nM.

Consider `CN1C(=O)[C@@H](NC(=O)c2nnc(Cc3ccccc3)[nH]2)CSc2cccn21` [Example 9, (R)-5-Benzyl-N-(5-methyl-4-oxo-2,3,4,5-tetrahydropyrrolo[2,1-b][1,3,4]thiadiazepin-3-yl)-4H-1,2,4-triazole-3-carboxamide], for which the results for the IC50 (at GST-RipK1(1-375); in assay [1]) were 10 nM and 5.01 nM, respectively.

Regarding `O=C(NC1CCc2oc3c(c2NC1=O)CCCC3)c1nnc(Cc2ccccc2)[nH]1` (stereo not shown) [Example 10, 5-benzyl-N-(2-oxo-2,3,4,5,7,8,9,10-octahydro-1H-benzofuro[3,2-b]azepin-3-yl)-4H-1,2,4-triazole-3-carboxamide], the IC50 at GST-RipK1(1-375) was 794 nM.

Broadly, the IC50 is the point on the concentration scale where inhibition reaches its midpoint.
